Values of other authors in patent US11116842B2, “Methylene blue complex for treating skin disease and its use thereof” (D. R. NANO Co., Ltd., priority 2017, dated 2021).

Tested on: skin disease such as acne
Conditions: for side effect in a long-term application: background art

SMILES | side effect in a long-term application | Light protection time after operation (prior-art photosensitizers) | Treatment effect (prior-art photosensitizers)
NCC(=O)CCC(=O)O [ALA, 5-aminolevulinic acid] | xeroderma | T > 30 hr | strong
COC(=O)CCC(=O)CN [MAL, Methyl-aminolevulinate] | xeroderma | – | –
